What was measured:
feline leukocytes = tested on: feline leukocytes
Protocol: (§1) All cats and dogs were housed at the Waltham Centre for Pet Nutrition, in conditions resembling those of pet cats and dogs, and were fed commercially available, complete diets throughout the study period. Fasted blood samples (5 ml) were drawn from the jugular vein of 12 healthy adult cats (7.2±4.8 years) and 12 healthy adult dogs (4.5±2.3 years) into lithium herparin vials and diluted 1:1 in PBS. Leukocytes were isolated over Histopaque 1083 gradients (Sigma, UK) by centrifugation at 1000 g for 40 minutes. Leukocytes were washed twice in 10 mls PBS and centrifuged at 700 g for 10 minutes before counting and storing at 1×10^6 cells/ml in 90% fetal calf serum (Sigma) and 10% dimethyl sulphoxide (Sigma) at −80° C. until required.
(§2) DNA damage was induced in vitro by exposing the leukocytes to a range of H2O2 concentrations (0-250 μM diluted in PBSa) to determine the optimal level of H2O2 required to induce a significant increase in DNA damage above background endogenous DNA damage levels. Leukocytes were thawed rapidly in a 37° C. water bath, washed twice in PBSa, centrifuged at 700 g for 15 minutes and resuspended in PBSa at […]. Cells were re-suspended in 0 μM, 10 μM, 50 μM, 100 μM and 250 μM H2O2 in PBSa and incubated on ice for 5 minutes. Treated leukocytes were centrifuged at 700 g for 15 minutes at 4° C. ready for slide preparation.
(§3) Two layers of agarose were prepared. For the first layer, 85 μl 1% (w/v) high-melting point (HMP) agarose (Sigma) prepared at 95° C. in PBSa was pipetted onto fully frosted microscope slides, covered with an 18×18 mm coverslip and allowed to set at 4° C. for 10 minutes. Untreated and hydrogen peroxide-treated leukocytes were washed twice in PBS, centrifuged at 700 g for 15 minutes and resuspended at 2×10^5 in 85 μl 1% (w/v) low melting point (LMP) agarose (Sigma). The cell suspension was then pipetted over the set HMP agarose layer, covered with an 18×18 mm coverslip and allowed to set at 4° C. for 10 minutes. After the coverslips were removed, the slides were immersed in freshly prepared cold lysis solution.

canine leukocytes = tested on: canine leukocytes
Protocol: as §1, §2, §3

[1] = 10-250 μM H2O2, 5 minutes, p<0.001

OO [H2O2, hydrogen peroxide]
DNA damage in relation to all other concentrations of H2O2 (feline leukocytes; 250 μM H2O2, FIG. 1): significant increases in DNA damage
DNA damage (visual comet score) versus untreated samples (feline leukocytes; [1]): Statistically significant increases in DNA damage
DNA damage in relation to all other concentrations of H2O2 (canine leukocytes; 250 μM H2O2, FIG. 2): significant increases in DNA damage
DNA damage (visual comet score) versus untreated samples (canine leukocytes; [1]): Statistically significant increases in DNA damage

Reference: US20070191476A1, “Antioxidant Components for Reduction of Nucleic Acid Damage in Companion Animals” (Mars, Incorporated, priority 2001, published 2007)
